Common to all, as to assay: NCI-60 cell line screen, 48 h
In assay [1] the test system is UO-31.
Assay [2] has as its system SK-MEL-28.
Assay [3] has as its system SF-295.
In assay [4] the test system is OVCAR-4.
In assay [5] the test system is M14.
For assay [6], the system named is HCT-15.
Assay [7] has as its system MOLT-4.
In assay [8] the test system is HL-60.
Assay [9] relates to CCRF-CEM.
Assay [10] deals with SW-620.
The subject of assay [11] is SK-OV-3.
Assay [12] concerns IGROV-1.
Assay [13] concerns SF-268.
Assay [14] relates to UACC-62.
In assay [15] the test system is CAKI-1.
The subject of assay [16] is U-251.
Assay [17] deals with SNB-19.
Assay [18] concerns 786-0.
Assay [19] has as its system SN12C.
Assay [20] relates to TK-10.

Molecules are shown by their SMILES.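 Cultured in 96-well plates, cells were exposed to test compound for 48 hours across five concentrations. GI50 marks 50% less growth.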 Activity calls are given as the source filed them. Cut-off read from the data, not from the text of the source: active = GI50 up to about 1.1 µM and inactive = higher.

As for `NCP(=O)(O)OCC(=O)O`, the GI50 in [1] was > 100 µM (inactive); in assay [2] it was > 100 µM (inactive); in assay [3], > 100 µM (inactive); in assay [4] it was > 100 µM (inactive); in assay [5] it was > 100 µM (inactive); in assay [6] it was > 100 µM. Further, the GI50 in assay [7], in [8], in assay [9], in assay [10], in [11] and in assay [12] was > 100 µM (inactive) in each case. Besides, the GI50 in assay [13], in assay [14], in assay [15], in [16], in [17] and in assay [18] was > 100 µM (inactive) throughout. Also, the GI50 in assay [19] and in assay [20] was > 100 µM (inactive) in each case.

Consider `COc1ccc(/C=C2\CNC/C(=C\c3ccc(OC)cc3)C2=O)cc1`, for which the GI50 in assay [1] is > 100 µM (inactive); in assay [2], 87.9 µM (inactive); in assay [3] it was 31.1 µM (inactive); in [4], 76.9 µM (inactive); in assay [5] it was > 100 µM (inactive); in assay [6] it was 27.4 µM. Further, the GI50 in assay [7] was 15.8 µM (inactive); in assay [8], 14 µM (inactive); in assay [9], 12.4 µM (inactive); in assay [10], 15.8 µM (inactive); in assay [11], > 100 µM (inactive); in assay [12] it was 48.2 µM (inactive). Moreover, the GI50 is 24.1 µM (inactive) in assay [13]; 49.4 µM (inactive) in [14]; 14.1 µM (inactive) in assay [15]; 17.6 µM (inactive) in assay [16]; 80.2 µM (inactive) in assay [17]; 46.3 µM (inactive) in assay [18]. Also, the values for the GI50 in [19] and in [20] were 37.1 µM (inactive) and > 100 µM (inactive), respectively.

Regarding `C=C1C(=O)O[C@H]2[C@H](OC(C)=O)[C@@H](C)CCC/C(C)=C/CC[C@@]3(C)O[C@@H]3C[C@@H]12`, the GI50 in assay [1] was 2.9 µM (inactive); in [2] it was 4.72 µM (inactive); in assay [3], 13.2 µM (inactive); in [4], 3.55 µM (inactive); in assay [5], 4.23 µM (inactive); in [6], 2.31 µM. The GI50 in [7] was 2.6 µM (inactive); in assay [8] it was 0.398 µM (active); in assay [9], 0.661 µM (active); in [10], 2.58 µM (inactive); in [11], 15.6 µM (inactive); in assay [12] it was 2.77 µM (inactive). Moreover, the GI50 was 5.62 µM (inactive) in assay [13]; 4.11 µM (inactive) in assay [14]; 2.19 µM (inactive) in [15]; 6.34 µM (inactive) in [16]; 13.6 µM (inactive) in assay [17]; 1.6 µM (inactive) in [18]. Also, the GI50 was 1.61 µM (inactive) in assay [19] and 2.13 µM (inactive) in assay [20].

Consider `O=C(C[n+]1ccccc1)NNC(=O)/C(=C/c1ccc2c(c1)OCO2)NC(=O)c1ccccc1`, for which the GI50 was > 70.8 µM (inactive) in assay [1]; > 100 µM (inactive) in [2]; > 79.3 µM (inactive) in assay [3]; 32.1 µM (inactive) in assay [4]; 48 µM (inactive) in assay [5]; 28.6 µM in [6]. Also, the GI50 in [7] was 30.4 µM (inactive); in assay [8], 25.2 µM (inactive); in [9] it was 25.9 µM (inactive); in assay [10], 34.8 µM (inactive); in assay [11] it was > 100 µM (inactive); in assay [12], 44.7 µM (inactive). The GI50 is 49.1 µM (inactive) in [13]; > 67.9 µM (inactive) in assay [14]; > 100 µM (inactive) in assay [15]; 28.2 µM (inactive) in assay [16]; 68.9 µM (inactive) in assay [17]; 51.4 µM (inactive) in assay [18]. Besides, the GI50 in [19] and in assay [20] was > 100 µM (inactive) throughout.

On to `O=C(NC1CCCCCC1)C1C(=O)N(C2CCCCCC2)C(=O)/C1=N\O` (stereo not given), for which the GI50 is 28.4 µM (inactive) in assay [1]; 30 µM (inactive) in [2]; 36.6 µM (inactive) in [3]; 44.1 µM (inactive) in [4]; 32.1 µM (inactive) in assay [5]; 34.4 µM in assay [6]. Further, the GI50 in assay [7] was 21.5 µM (inactive); in assay [8] it was 22.5 µM (inactive); in assay [9] it was 27.2 µM (inactive); in assay [10], 37.6 µM (inactive); in [11], 38.4 µM (inactive); in assay [12] it was 50 µM (inactive). Further, the GI50 in assay [13] was 29.1 µM (inactive); in assay [14] it was 21 µM (inactive); in assay [15] it was 40.2 µM (inactive); in assay [16], 18.6 µM (inactive); in assay [17], 35.2 µM (inactive); in assay [18], 32.8 µM (inactive). The GI50 in assay [19] was 34.7 µM (inactive); in [20], 6.12 µM (inactive).

Take `CS(=O)(=O)c1nc(-c2cc3c(c(S(C)(=O)=O)n2)CCC3)cc2c1CCCC2`: the GI50 is 7.71 µM (inactive) in [1]; > 100 µM (inactive) in [2]; 29.7 µM (inactive) in assay [3]; > 100 µM (inactive) in assay [4]; > 100 µM (inactive) in [5]; > 100 µM in assay [6]. Besides, the GI50 is > 100 µM (inactive) in assay [7]; > 100 µM (inactive) in assay [8]; > 100 µM (inactive) in [9]; > 100 µM (inactive) in [10]; 24.4 µM (inactive) in assay [11]; 18.3 µM (inactive) in assay [12]. Besides, the GI50 was 7.76 µM (inactive) in assay [13]; 14.4 µM (inactive) in assay [14]; 17 µM (inactive) in [15]; 27.1 µM (inactive) in assay [16]; 32.4 µM (inactive) in assay [17]; 35.3 µM (inactive) in [18]. The GI50 was > 100 µM (inactive) in assay [19] and 64.9 µM (inactive) in assay [20].

In the case of `COc1ccc(/C=C2\CC3C4CC=C5C[C@@H](N6CCCC6)CC[C@]5(C)C4CC[C@]3(C)[C@H]2O)cc1OC` (stereo not given in full), the GI50 in assay [1] is 9.27 µM (inactive); in [2], 8.51 µM (inactive); in assay [3] it was 3.13 µM (inactive); in assay [4], 7.67 µM (inactive); in assay [5], 9.44 µM (inactive); in [6], 6.81 µM. In addition, the GI50 in assay [7] is 8.39 µM (inactive); in assay [8], 14.4 µM (inactive); in [9], 8.17 µM (inactive); in assay [10], 15.8 µM (inactive); in assay [11], 8.81 µM (inactive); in assay [12], 10.7 µM (inactive). Moreover, the GI50 in [13] was 10.4 µM (inactive); in assay [14], 8.97 µM (inactive); in assay [15] it was 8.65 µM (inactive); in [16], 8.45 µM (inactive); in assay [17], 10.4 µM (inactive); in assay [18], 3.77 µM (inactive). Besides, the GI50 is 10.2 µM (inactive) in [19] and 10.8 µM (inactive) in [20].

For the compound `COc1cc(Cn2c3ccccc3c3cc(C)c4c(c32)C=CC(C)(CCC=C(C)C)O4)cc2c1[nH]c1ccccc12` (stereo not given) [CHRESTFOLINE C], the GI50 in [1] was > 100 µM (inactive); in assay [2], > 100 µM (inactive); in assay [3] it was > 100 µM (inactive); in assay [4], > 100 µM (inactive); in assay [5], > 100 µM (inactive); in assay [6], > 100 µM. Besides, the GI50 in assay [7], in [8], in assay [9], in [10], in assay [11] and in [12] was > 100 µM (inactive) throughout. Moreover, the GI50 in [13], in assay [14], in [15], in assay [16], in assay [17] and in assay [18] was > 100 µM (inactive) each time. The GI50 in assay [19] and in assay [20] was > 100 µM (inactive) each time.

Take `COC(=O)C1c2cc3c(cc2C(OC2OC(C)C(OC)C(C)(OC)C2OC)CC1(C)O)C(=O)c1c(O)cc2c(c1C3=O)OC1OC2(C)C(O)C([N+](C)(C)[O-])C1O` (stereo not given): the GI50 in [1] was 1.19 µM (inactive); in assay [2], 0.195 µM (active); in assay [3] it was 0.269 µM (active); in assay [4], 4.09 µM (inactive); in [5], 0.482 µM (active); in assay [6], 2.78 µM. The GI50 in assay [7] was 0.416 µM (active); in [8], 0.286 µM (active); in assay [9], 0.0504 µM (active); in assay [10], 0.0845 µM (active); in assay [11], 1.64 µM (inactive); in [12], 0.0791 µM (active). In addition, the GI50 is 0.0891 µM (active) in assay [13]; 0.0509 µM (active) in assay [14]; 0.938 µM (active) in assay [15]; 0.0386 µM (active) in [16]; 0.126 µM (active) in assay [17]; 0.111 µM (active) in assay [18]. In addition, the GI50 in assay [19] was 0.102 µM (active); in [20], 2.83 µM (inactive).

For `COc1cc2c(cc1OC)C1(c3ccc(Cl)cc3)ON=C(c3ccccc3)N1CS2` (stereo not given), the GI50 in [1] is 27.1 µM (inactive); in assay [2], > 100 µM (inactive); in assay [3], 95.3 µM (inactive); in [4], > 100 µM (inactive); in assay [5] it was 73.8 µM (inactive); in assay [6], > 100 µM. For the same compound, the GI50 in assay [7] was 11 µM (inactive); in [8] it was 24.2 µM (inactive); in assay [9], 41 µM (inactive); in assay [10] it was > 100 µM (inactive); in [11] it was > 100 µM (inactive); in assay [12], 38.7 µM (inactive). Further, the GI50 in assay [13] is > 100 µM (inactive); in assay [14] it was 36 µM (inactive); in [15], > 100 µM (inactive); in assay [16] it was > 100 µM (inactive); in [17], > 100 µM (inactive); in assay [18], > 100 µM (inactive). For the same compound, the results for the GI50 in assay [19] and in assay [20] were 64.7 µM (inactive) and > 100 µM (inactive), respectively.

The values are drawn from ChEMBL document CHEMBL1201862, “PubChem BioAssay data set” (2004).
